Experimental findings from publication PMC11079024, “Identification of a family of species-selective complex I inhibitors as potential anthelmintics” (Nature Communications, 2024) are described below.

Each structure is given as a SMILES string. Where “and” joins values, the source holds several entries; their conditions need not be identical. Equal values may be shown once. Read-outs that look alike come from different tables or passages of the source.

The subject of this assay is anthelmintic/nematicide-resistant C. elegans mutant strains. Description: microbe, parasite or virus in culture. Particulars: for LC50: Caenorhabditis elegans; for dose response data: mev-1 (tr355). From the text: In addition to the Caenorhabditis elegans wild-type N2 strain, this work included the following C. elegans strains: CB1003 (kynu-1(e1003) X); anthelmintic-resistant strains—CB3474 (ben-1(e1880) III), CB193 (unc-29(e193) I), HY496 (bre-1(ye4) IV), RB2119 (acr-23(ok2804) V), JD608 (avr-14(ad1302) I; avr-15(ad1051) V; glc-1 (pk54) V), NM1968 (slo-1(js379) V), RP2635 (mev-1(tr355) III); benzimidazole-resistant CRISPR strains—ECA882 (ben-1(ean64) III), ECA917 (ben-1(ean98) III), ECA1075 (ben-1(ean143) III), ECA1080 (ben-1(ean148) III). This work also featured several additional free-living nematode strains: C. briggsae strain AF16, P. pacificus strain PS312, and P. hermaphrodita strain B178. The four CRISPR-generated benzimidazole-resistant C. elegans mutants were generously provided by Prof. Erik Andersen (Johns Hopkins University); PS312 and B178 were generously provided by Prof. Peter Roy (University of Toronto); all other strains were obtained from the Caenorhabditis Genetics Center (CGC, University of Minnesota). All strains were cultured and propagated at 20 °C on NGM (nematode growth medium) agar plates seeded with E. coli OP50 (Stiernagle, 2006)[56].
Liquid development and viability assays were adapted from a previously established chemical screening protocol (Burns et al.)[24]. In brief, a saturated culture of E. coli HB101 was concentrated 2-fold in liquid NGM and 40 μL of this suspension was distributed to each well of a 96-well flat-bottom culture plate. 0.5 μL chemical solution (or DMSO alone) was added to each well (1% DMSO v/v) using either a multi-channel pipette or a pinning tool (V&P Scientific). L1 worms synchronized from an embryo preparation performed the day prior were diluted to a concentration of ~2 worms/μL in M9 buffer; 10 μL worm suspension was then added to each well. Culture plates were sealed with parafilm and placed in a plastic container lined with wet paper towels to prevent evaporation. Containers were then incubated for 6 days at 20 °C with shaking at 165 rpm. Following incubation, 300 μL M9 was added to each well to decrease the turbidity of the HB101-NGM suspension. Single images of each microplate well were then taken on a Nikon Ti Eclipse inverted microscope (Nikon NIS Elements AR). Images were processed using Python scripts to isolate worm-associated pixels from background. Scores of worm development and viability were determined as the sum of worm-associated pixels in each well. Development/viability scores for each well were divided by the development /viability scores for the corresponding DMSO controls, resulting in a relative viability value for each chemical. At least three biological replicates were performed for each dose-response experiment; relative viability values were averaged across replicates.
Supplementary Table 2. Sensitivity of anthelmintic/nematicide-resistant strains to Class A, B, and C
benzimidazole complex I inhibitors.
LC50s were estimated from fitted dose-
response curves; all dose response data are the mean of at least three biological replicates.
Supplementary Table 2. Davie et al.

With `COC(=O)Nc1nc2ccc(C(=O)c3ccccc3)cc2[nH]1` [mebendazole, reference compound], the “C. elegans L1 relative development & viability” value is reported as 1.000 (CB3474 G104D (ben-1), 1 µM, score 0-1 relative to DMSO, values >1 set to 1); 1.000 (CB3474 G104D (ben-1), 2 µM, score 0-1 relative to DMSO, values >1 set to 1); 1.000 (CB3474 G104D (ben-1), 3.9 µM, score 0-1 relative to DMSO, values >1 set to 1); 1.000 (CB3474 G104D (ben-1), 15.6 µM, score 0-1 relative to DMSO, values >1 set to 1); 1.000 (CB3474 G104D (ben-1), 31.3 µM, score 0-1 relative to DMSO, values >1 set to 1); 1.000 (CB3474 G104D (ben-1), 62.5 µM, score 0-1 relative to DMSO, values >1 set to 1). In addition, the “C. elegans L1 relative development & viability” value runs as follows: (CB3474 G104D (ben-1), 125 µM, […]) 0.918; (CB3474 G104D (ben-1), 250 µM, […]) 0.816; (ECA917 F200Y (ben-1), 1 µM, score 0-1 relative to DMSO, values >1 set to 1) 1.000; (ECA917 F200Y (ben-1), 2 µM, score 0-1 relative to DMSO, values >1 set to 1) 1.000; (ECA917 F200Y (ben-1), 3.9 µM, score 0-1 relative to DMSO, values >1 set to 1) 1.000; (ECA917 F200Y (ben-1), 15.6 µM, score 0-1 relative to DMSO, values >1 set to 1) 1.000. In addition, the “C. elegans L1 relative development & viability” value (ECA917 F200Y (ben-1), 31.3 µM, […]) is given as 0.958; the “C. elegans L1 relative development & viability” value (ECA917 F200Y (ben-1), 62.5 µM, […]) was 0.687; the “C. elegans L1 relative development & viability” value (ECA917 F200Y (ben-1), 125 µM, […]) was found to be 0.515; the “C. elegans L1 relative development & viability” value (ECA917 F200Y (ben-1), 250 µM, […]) was 0.575; the “C. elegans L1 relative development & viability” value (ECA1075 F167Y (ben-1), 1 µM, score 0-1 relative to DMSO, values >1 set to 1) is 1.000; the “C. elegans L1 relative development & viability” value (ECA1075 F167Y (ben-1), 2 µM, score 0-1 relative to DMSO, values >1 set to 1) was 1.000. For the same compound, the “C. elegans L1 relative development & viability” value by setting is: (ECA1075 F167Y (ben-1), 3.9 µM, score 0-1 relative to DMSO, values >1 set to 1) 1.000; (ECA1075 F167Y (ben-1), 15.6 µM, score 0-1 relative to DMSO, values >1 set to 1) 1.000; (ECA1075 F167Y (ben-1), 31.3 µM, […]) 0.936; (ECA1075 F167Y (ben-1), 62.5 µM, […]) 0.436; (ECA1075 F167Y (ben-1), 125 µM, […]) 0.502; (ECA1075 F167Y (ben-1), 250 µM, […]) 0.324. The “C. elegans L1 relative development & viability” value is listed as 1.000 (ECA1080 E198A (ben-1), 1 µM, score 0-1 relative to DMSO, values >1 set to 1); 1.000 (ECA1080 E198A (ben-1), 2 µM, score 0-1 relative to DMSO, values >1 set to 1); 1.000 (ECA1080 E198A (ben-1), 3.9 µM, score 0-1 relative to DMSO, values >1 set to 1); 1.000 (ECA1080 E198A (ben-1), 15.6 µM, score 0-1 relative to DMSO, values >1 set to 1); 1.000 (ECA1080 E198A (ben-1), 31.3 µM, score 0-1 relative to DMSO, values >1 set to 1); 0.746 (ECA1080 E198A (ben-1), 62.5 µM, […]). In addition, the “C. elegans L1 relative development & viability” value by setting is: (ECA1080 E198A (ben-1), 125 µM, […]) 0.386; (ECA1080 E198A (ben-1), 250 µM, […]) 0.470.

Usually LC50 stands for the concentration lethal to half of the exposed cells or organisms. With `Cc1nc2ccccc2n1Cc1ccc(Cl)cc1` [STK697993], the 50% lethal concentration (LC50) by setting is: (read-out: C. elegans Development & Viability LC50, acr-23(ok2804)) 34.9 µM; (read-out: C. elegans Development & Viability LC50, avr-14(ad1302), avr-15(ad1051), glc-1(pk54)) 28.3 µM; (read-out: C. elegans Development & Viability LC50, ben-1(e1880)) 38.6 µM; (read-out: C. elegans Development & Viability LC50, bre-1(ye4)) 31.1 µM; (read-out: C. elegans Development & Viability LC50, mev-1(tr355)) 28.5 µM; (read-out: C. elegans Development & Viability LC50, slo-1(js379)) 16.1 µM. Also, the 50% lethal concentration (LC50) (read-out: C. elegans Development & Viability LC50, unc-29(e193)) amounted to 22.9 µM. In addition, the dose response data was 0.989 and 1.000 (concentration step 1 of 13 (c108)); 0.994 and 1.000 (concentration step 4 of 13 (c111)).
